Data taken from patent publication US20250188032A1, “NITROGEN-CONTAINING HETEROCYCLIC COMPOUNDS AND USES THEREOF” (BNH RESEARCH CO., LTD., priority 2022, published 2025).

Columns and labels:
[1] = system: BDNF and GluN2B expression in SH-SY5Y cells; assay: Expression of BDNF and GluN2B in SH-SY5Y cells; assay type: cell-based, human; details: 1 μM, application for 6 and 24 hours
Description: (§1) Human undifferentiated neuroblastoma cell line SH-SY5Y and human embryonic kidney cell line (HEK)-293T were purchased from Korean Cell Line Bank (Korea) and Takara (Japan), respectively. Cells were grown in HyClone Minimal Essential Medium (MEM) and Dulbecco's Modified Eagle Medium (DMEM), respectively, supplemented with 10% (v/v) fetal bovine serum (FBS), penicillin (100 U/mL), and streptomycin ([…]). Cells were maintained in a humidified atmosphere of 95% air and 5% CO2 at 37° C. Cells were passaged 10 times at maximum. Cells were dissociated using 0.05% trypsin-EDTA solution and the cells were seeded in new culture dishes for maintenance.

SH-SY5Y cells = assay: Cytotoxicity test (CCK-8 cell viability) in SH-SY5Y cells; assay type: cell-based, human; details: 0, 0.1, 1, 10, 100 μM
Description: as §1
To examine the cytotoxicity of compounds described herein in human cell lines, SH-SY5Y and 293T cells were used. […] Finally, 10 μL of CCK-8 reagent (Dojindo Laboratories, Rockville, MD) was added to each well, and after incubation at 37° C. for 3 minutes, the OD at 450 nm was measured using a multifunction microplate reader (Tecan Infinite M200 Pro). These measurements were compared to that of a control and expressed as a percentage of the control to calculate cell viability. The IC50 value was calculated using SPSS software. To do this, the absorbance of the blank wells with only growth medium is subtracted from the values or the wells with cells. […]

SMILES: CC1CCC(C(=O)O)CN1C(=O)Cc1ccc(F)cc1Cl (racemic) [BnH12001, 1-(2-(2-chloro-4-fluorophenyl)acetyl)-6-methylpiperidine-3-carboxylic acid]
- BDNF expression [1]: augmented
- GluN2B expression [1]: augmented
- Change in cell viability (SH-SY5Y cells): no significant change in cell viability
